Consider 8 molecules from article PMC6724193 (ACS infectious diseases, 2019).

Series [1] concerns E. coli K-12. As to the kind of experiment: Intracellular accumulation of antibiotics. In kind it is cell-based.
The subject of series [2] is M. tuberculosis H37Ra.
Series [3] concerns M. africanum. As to the kind of experiment: microbe, parasite or virus in culture. In kind it is cell-based.
Series [4] relates to M. smegmatis mc^2155. As to the kind of experiment: MIC90 against M. smegmatis. The format is cell-based. The conditions noted are these: ≥90% growth inhibition.
For series [5], the system named is M. avium complex (3). As to the kind of experiment: MIC against M. avium complex. In kind it is cell-based. The settings on record: Mycobacterium avium.
Series [6] has as its system M. tuberculosis Erdman. As to the kind of experiment: microbe, parasite or virus in culture. The format is cell-based. The settings on record: Mycobacterium tuberculosis.
The test system of series [7] is M. tuberculosis H37Rv. The format is cell-based.
Series [8] relates to Vero. The settings on record: African green monkey, 72 h.
In series [9] the test system is M. tuberculosis (2) XDR. As to the kind of experiment: microbe, parasite or virus in culture. In kind it is cell-based. The conditions noted are these: Mycobacterium tuberculosis.
Series [10] has as its system E. faecalis (V583). Kind of series: MIC, broth microdilution, E. faecalis. The settings on record: Enterococcus faecalis. On the technique in general: In broth dilution the organism is exposed to a series of concentrations in liquid medium.
In series [11] the test system is M. tuberculosis (8) drug-sensitive clinical isolates. Kind of series: microbe, parasite or virus in culture. In kind it is cell-based. The settings on record: Mycobacterium tuberculosis.
In series [12] the test system is HepG2. The conditions noted are these: human, 72 h.
Series [13] has as its system M. tuberculosis strain carrying two copies of the bioB gene. As to the kind of experiment: MIC against BioB merodiploid strain. In kind it is cell-based.
Series [14] relates to A. baumannii (AB5075). As to the kind of experiment: MIC, broth microdilution, A. baumannii. The settings on record: Acinetobacter baumannii.
Series [15] relates to M. bovis BCG. Kind of series: microbe, parasite or virus in culture. The format is cell-based.
Series [16] deals with E. coli biotin synthase (EcBioB) (Escherichia coli, UniProt P12996). As to the kind of experiment: biochemical. In kind it is biochemical. The settings on record: for IC50: 5 μM EcBioB dimer, 10 μM DTB, 100 μM SAM, single-turnover.
Sequence of E. coli biotin synthase (EcBioB) (P12996 whole entry): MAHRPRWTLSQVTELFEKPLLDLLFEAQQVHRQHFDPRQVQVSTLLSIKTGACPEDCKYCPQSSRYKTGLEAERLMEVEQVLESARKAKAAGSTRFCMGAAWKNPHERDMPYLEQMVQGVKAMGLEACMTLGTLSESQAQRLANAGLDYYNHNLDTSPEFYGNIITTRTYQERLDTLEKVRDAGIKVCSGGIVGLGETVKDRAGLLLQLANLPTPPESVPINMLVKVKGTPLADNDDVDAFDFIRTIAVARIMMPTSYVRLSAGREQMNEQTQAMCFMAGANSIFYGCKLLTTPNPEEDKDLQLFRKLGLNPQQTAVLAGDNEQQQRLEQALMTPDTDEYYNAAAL
Series [17] concerns M. tuberculosis H37Rv. Kind of series: MIC against M. tuberculosis H37Rv. The format is cell-based, Mycobacterium tuberculosis.
Series [18] concerns non-tuberculosis mycobacteria, gram-positive and gram-negative pathogens. As to the kind of experiment: organism not typed. The format is cell-based.
Series [19] has as its system M. tuberculosis (6) MDR+. As to the kind of experiment: microbe, parasite or virus in culture. The settings on record: Mycobacterium tuberculosis. In kind it is cell-based.
Series [20] has as its system S. aureus (USA300). As to the kind of experiment: MIC, broth microdilution, S. aureus. The settings on record: Staphylococcus aureus.
In series [21] the test system is M. abscessus (4). Kind of series: MIC against M. abscessus. The settings on record: Mycobacteroides abscessus. In kind it is cell-based.
For series [22], the system named is M. tuberculosis (7) MDR. As to the kind of experiment: microbe, parasite or virus in culture. The conditions noted are these: Mycobacterium tuberculosis. The format is cell-based.
For series [23], the system named is P. aeruginosa (PA14). Kind of series: MIC, broth microdilution, P. aeruginosa. The settings on record: Pseudomonas aeruginosa.
Series [24] concerns E. coli ATCC 25922. Kind of series: MIC, broth microdilution, E. coli. The settings on record: Escherichia coli, ATCC25922.
Series [25] concerns M. tuberculosis HN878. As to the kind of experiment: microbe, parasite or virus in culture. The format is cell-based. The conditions noted are these: Mycobacterium tuberculosis.
The conditions of series [26]: for t1/2 (i.v.): 5 mg/kg i.v., terminal elimination half-life; for F (oral bioavailability) / AUC0–∞ (i.v.) / CL (i.v.) / Vd (i.v.) / AUC0–∞ (p.o.): mouse, in vivo; for AUC0–∞ (i.v.) / CL (i.v.) / Vd (i.v.): iv, 5 mg/kg; for AUC0–∞ (p.o.): po, 25 mg/kg.
In series [27] the test system is biotinylated proteome of M. tuberculosis. The format is cell-based, M. tuberculosis H37Ra.
Series [28] can be described thus: physchem.
Series [29] relates to mycobacteria. The conditions noted are these: cited from earlier work.
Series [30] has as its system gram-positive and gram-negative bacteria or fungi. The conditions noted are these: cited from earlier work.
The target of series [31] is MtBPL (M. tuberculosis biotin protein ligase) (Mycobacterium tuberculosis, UniProt I6YFP0). The format is binding.
Sequence of MtBPL (M. tuberculosis biotin protein ligase) (I6YFP0 whole entry, looked up): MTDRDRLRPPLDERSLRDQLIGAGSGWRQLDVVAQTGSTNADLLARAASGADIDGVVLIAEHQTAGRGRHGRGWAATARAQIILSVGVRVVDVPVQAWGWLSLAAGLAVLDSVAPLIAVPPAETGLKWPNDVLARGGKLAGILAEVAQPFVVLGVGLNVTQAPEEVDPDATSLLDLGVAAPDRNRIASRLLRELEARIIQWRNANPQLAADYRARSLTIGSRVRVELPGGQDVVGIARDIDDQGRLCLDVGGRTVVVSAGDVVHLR
The subject of series [32] is biotin pathway intermediates (vitamers). The settings on record: acidomycin added to culture media; cited from earlier work.
Series [33] concerns M. tuberculosis infection. The settings on record: cited from earlier work.

Structures are written as SMILES. In brackets after ≈: the same amount, converted by molar mass. Several values for one entry are separate records, joined by “and”; a condition that tells them apart may be missing. Equal entries are not always repeated. Entries after “also recorded” stand apart in the source; their conditions may differ. Where two headings read alike, the source gives them in different places. Marks after values point to notes of the source that are not given here. Bounds are passed on as bounds.

For `CO[C@H]1/C=C/O[C@@]2(C)Oc3c(C)c(O)c4c(O)c(c(/C=N/N5CCN(C)CC5)c(O)c4c3C2=O)NC(=O)/C(C)=C\C=C\[C@H](C)[C@H](O)[C@@H](C)[C@@H](O)[C@@H](C)[C@H](OC(C)=O)[C@@H]1C` [Rifampicin, reference compound], the “IC/EC Ratio” value in series [1] turned out to be 2.1.

For `CSc1ccc2c(c1)N(CCC1CCCCN1C)c1ccccc1S2` (stereo not shown) [Thioridazine], in [2], the “Accumulation, +biotin” value was 5.2 ± 0.4 nmol/10^12 CFUs; the “Accumulation, −biotin” value was found to be 18 ± 1 nmol/10^12 CFUs; the “IC/EC Ratio” value was 0.7 and 0.72 ± 0.04; the “Intracellular Concentration, −biotin” value was 36 ± 2 µM.

`O=C(O)CCCCCC1NC(=O)CS1` (racemic) [(±)-acidomycin, 6-(4-Oxothiazolidin-2-yl)hexanoic acid]: the MIC was 0.20 µM (≈ 0.0435 µg/mL) in [3]; 0.2 µM (≈ 0.0435 µg/mL) in series [3] (Mycobacterium tuberculosis); > 100 µM in series [5]; 1.56 µM (≈ 0.339 µg/mL) in [6]; 0.096 to 1.2 µM (≈ 0.0209 to 0.261 µg/mL) in series [9]; 0.096 to 6.2 µM (≈ 0.0209 to 1.35 µg/mL) in series [11]. In addition, the MIC in series [15] is 1.30 µM (≈ 0.282 µg/mL); in series [15] (Mycobacterium tuberculosis variant bovis BCG, BCG) it was 1.3 µM (≈ 0.282 µg/mL); in [17], 1.56 µM (≈ 0.339 µg/mL); in series [17] (Mycobacterium tuberculosis, H37RV), 1.6 µM (≈ 0.348 µg/mL); in series [19] it was 0.2 to 4.8 µM (≈ 0.0435 to 1.04 µg/mL); in series [21], > 100 µM. For the same molecule, the MIC is 0.6 to 6.2 µM (≈ 0.13 to 1.35 µg/mL) in [22] and 0.6 µM (≈ 0.13 µg/mL) in [25]. Also, the “IC/EC Ratio” value in series [1] is 1.6 and 1.6 ± 0.4. Further, the “Intracellular Concentration, −biotin” value amounted to 80 µM in series [1]; 80 ± 20 µM in series [1] (E. coli, cell volume 1.0 μm^3); 2600 ± 800 µM in series [2]. The “Accumulation, −biotin” value is 80 ± 20 nmol/10^12 CFUs in series [1] (E. coli, 50 μM extracellular) and 1300 ± 400 nmol/10^12 CFUs in series [2]. In addition, the “Accumulation, +biotin” value in series [1] (E. coli, 50 μM extracellular, 1 μM biotin) turned out to be 61 ± 2 nmol/10^12 CFUs; in series [2], 1150 ± 40 nmol/10^12 CFUs. Also, the MIC90 (commonly an inhibitory concentration at the 90% level, which refers to growth in some studies and to a panel of isolates in others) is 10^d μM in series [4]; > 1000 µM in series [10]; > 1000 µM in series [14]; > 1000 µM in series [20]; > 1000 µM in series [23]; > 1000 µM in [24]. Further, the “effect of KAPA supplementation on growth inhibition” value in series [7] is given as “no effect”. Further, the “effect of biotin supplementation on growth inhibition” value in series [7] is reported as “completely rescued”. Also, the “shift of MIC by DTB supplementation” value in series [7] is “approximately two-fold”. The “EC (greater than 50% inhibition of cell viability)” value in series [8] and in [12] was >1000^e μM throughout. Further, the “change of MIC in BioB merodiploid versus H37Rv” value in series [13] was “increase in the MIC”. Further, the “fold higher accumulation in M. tuberculosis than in E. coli” value in series [2] is reported as “approximately 30 fold”. Moreover, the “impact of exogenous biotin on cellular accumulation in M. tuberculosis” value in series [2] was “little impact”. For the same molecule, in [16], the affinity corresponds to a Ki of 2 ± 1.3 µM. Further, the modality of inhibition entry in series [16] is given as “competitive inhibitor; also recorded: competitive inhibition”. For the same molecule, the “effect on M. tuberculosis viability” value in series [17] was “bacteriostatic”. In [17], the “fold difference in MIC relative to (S)-(−)-acidomycin” value is on record as “about 2.5 fold”. For the same molecule, the “activity toward representative gram-negative and gram-positive pathogens” value in series [18] is “inactive”.

Take `O=C(O)CCCCC[C@@H]1NC(=O)CS1` [(R)-(+)-acidomycin]: in series [26], the “t1/2 (i.v.)” value worked out at 19.2 ± 2.4 min, the “F (oral bioavailability)” value turned out to be 16 ± 7%, the “AUC0–∞ (i.v.)” value amounted to 2055 ± 564 ng·h/mL and the “CL (i.v.)” value was 40.55 ± 8.03 mL/min/kg. For the same molecule, in [26], the “Vd (i.v.)” value worked out at 1.12 ± 0.37 L/kg and the “AUC0–∞ (p.o.)” value was found to be 1591 ± 718 ng·h/mL. Further, the IC50 (as a rule, the concentration at which inhibition is half-maximal) in series [16] is > 100 µM. Moreover, the “inhibition of EcBioB” value in series [16] (at 100 μM) is reported as “less than 30%”. In addition, in series [17], the MIC came out at 7.7 µM (≈ 1.67 µg/mL) and the “fold difference in MIC relative to (S)-(−)-acidomycin” value was “thirteen-fold less active”.

Regarding `Nc1ncnc2c1ncn2[C@@H]1O[C@H](CNS(=O)(=O)NC(=O)CCCC[C@@H]2SC[C@@H]3NC(=O)N[C@@H]32)[C@@H](O)[C@H]1O` [Bio-AMS, 5ʹ-[N-(D-biotinoyl)sulfamoyl]amino-5ʹ-deoxyadenosine], the “impact on global protein biotinylation” value in [27] was “noticeable decrease in protein band intensity”.

`O=C(O)CCCCC[C@H]1NC(=O)CS1` [(S)-(−)-acidomycin]: in series [26], the “t1/2 (i.v.)” value was determined as 14.4 ± 0.1 min, the “F (oral bioavailability)” value is recorded as 8 ± 1%, the “AUC0–∞ (i.v.)” value was 2116 ± 115 ng·h/mL and the “CL (i.v.)” value worked out at 39.38 ± 2.1 mL/min/kg. In series [26], the “Vd (i.v.)” value is given as 0.82 ± 0.05 L/kg and the “AUC0–∞ (p.o.)” value is 890 ± 106 ng·h/mL. Further, half-maximal inhibition in series [16] (IC50) was put at 13.3 ± 1.8 µM.

For the molecule `O=C(O)CCCCCC1NC(=O)CS1` (stereo not shown) [acidomycin], the solubility (in general, the dissolved amount per volume that the medium holds) in series [28] was < 4000 µM. Moreover, the “increase in inhibitory concentrations after growth in the presence of acidomycin” value in series [29] is recorded as “two-fold”. In series [29] (converted value), the “concentrations required to inhibit the growth of mycobacteria in vitro” value was 1.2 to 46.0 µM. The “concentration without growth inhibition” value in series [30] is > 1 mg/mL. In addition, the “concentration without growth inhibition” value in [30] (converted value) is recorded as > 4.6 mM. For the same molecule, the “binding to MtBPL” value in [31] is recorded as “does not bind to MtBPL”. Besides, in series [16], the inhibition constant Ki (usually the equilibrium dissociation constant of an inhibitor or competing ligand from its target) was ~1 µM, the “production of 5′-deoxyadenosine by BioB” value was “significantly enhanced” and the time-dependent inhibition result was “did not exhibit time-dependent inhibition”. In series [17], the “difference in whole cell activity, E. coli versus M. tuberculosis” value is recorded as > 100 fold. In addition, the “increase of accumulation of biotin pathway intermediates (vitamers)” value in series [32] was “two- to seventy-fold”. For the same molecule, the “susceptibility of NTM strains” value in [18] is “intrinsically resistant”. Moreover, the MIC in [18] (read-out: MICs) was > 1000 µM. Besides, the “activity against an M. tuberculosis infection in vivo” value in series [33] is “inactive”.

As for `CN(C)[C@@H]1C(O)=C(C(N)=O)C(=O)[C@@]2(O)C(O)=C3C(=O)c4c(O)cccc4[C@@](C)(O)[C@H]3C[C@@H]12` [Tetracycline, reference compound], in [1], the “Accumulation, +biotin” value is recorded as 1600 ± 100 nmol/10^12 CFUs and the “Accumulation, −biotin” value was found to be 3100 ± 120 nmol/10^12 CFUs. For the same molecule, in [2], the “Accumulation, +biotin” value worked out at 2220 ± 50 nmol/10^12 CFUs and the “Accumulation, −biotin” value was 2200 ± 200 nmol/10^12 CFUs.
